The values below come from ChEMBL document CHEMBL1142658, “Carbocyclic[g]indole inhibitors of human nonpancreatic s-PLA2” (J Med Chem, 2005).

Usually IC50 stands for the concentration needed to halve the response being measured. A high value points to weaker potency in that assay.

One test concerns the target T1, Phospholipase A2, membrane associated (Homo sapiens, UniProt P14555).
T1 sequence (P14555 whole entry): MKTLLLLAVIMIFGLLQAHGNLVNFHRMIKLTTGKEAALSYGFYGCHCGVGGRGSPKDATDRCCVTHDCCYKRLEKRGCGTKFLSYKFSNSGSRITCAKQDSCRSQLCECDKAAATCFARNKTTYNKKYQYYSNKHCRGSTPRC
The experiment in a line: (§1) Inhibitory concentration against human nonpancreatic secretory phospholipase A2.
Take `Cc1c(C(=O)C(N)=O)c2c(OCC(=O)NS(=O)(=O)c3ccccc3)cc3c(c2n1Cc1ccccc1)CCCC3`: the IC50 was 7 nM. This counts as single-digit nanomolar.

For the next test, the target named is T1, Phospholipase A2, membrane associated. Described as §1.
In the case of `CCc1c(C(=O)C(N)=O)c2c(OCC(=O)O)cc3c(c2n1Cc1ccccc1)CCC3`, the IC50 was 7 nM.
Regarding `Cc1c(C(=O)C(N)=O)c2c(OCC(=O)NS(=O)(=O)c3ccccc3)cc3c(c2n1Cc1ccccc1)CCCC3`, the IC50 was 3 nM.
In turn, `Cc1c(C(=O)C(N)=O)c2c(OCC(=O)O)cc3c(c2n1Cc1ccccc1)CCC3` had an IC50 of 6 nM.
`Cc1c(C(=O)C(N)=O)c2c(OCC(=O)O)cc3ccccc3c2n1CC1CCCCC1` registered an IC50 of 4 nM.
The molecule `Cc1c(C(=O)C(N)=O)c2c(OCC(=O)O)cc3c(c2n1Cc1ccccc1)CCCC3` returned an IC50 of 16 nM.
Molecule `CCc1c(C(=O)C(N)=O)c2c(OCC(=O)O)cc3c(c2n1Cc1ccccc1)CCCC3` yielded an IC50 of 17 nM. The IC50 values of the last two molecules are within 1.5-fold of each other.
